The assay has as its target Syk (356-635 amino acids) catalytic domain (Homo sapiens (Human), UniProt P43405). In words: Inhibition of enzymatic Syk kinase activity (radiometric). The assay is classed as biochemical. Particulars: read-out: IC50 Syk. The text has this: The objective of this assay was to examine by radiometric method the ability of compounds to inhibit Syk kinase enzyme. Syk is capable of phosphorylating substrates such as VAV, LAT, SLP-76, which in turn activate MAPK, PLCγ signaling pathways. […] This in vitro assay tests the ability of syk to phosphorylate a substrate peptide in the presence of ATP. By using a radio-labeled form of ATP, it is possible to measure the amount of phosphorylation of the substrate. The enzyme transfers a radio-labeled phosphate group from γ32 P labeled ATP to pG4T. Briefly the enzyme was incubated with substrate, radio-labeled & cold ATP and substrate in buffer with or without compounds. At the end of the reaction, the reaction mixture was transferred on to a Multiscreen filter plate and unreacted γ^32P ATP was washed off. The filter plate was dried and the radioactivity was measured on a scintillation counter to estimate the incorporated radioactivity on the substrate. The percent inhibition of activity of the enzyme was calculated by comparing counts in the presence and absence of compounds. […] 2.5 μL of 10% DMSO or compound in 10% DMSO was added to the wells in a 96 well V-bottom plate. Optimized concentration of in-house Syk enzyme (different batches of Syk (356-635) kinase domain) were used at optimized concentrations) ranging from 0.035 ng to 7.5 ng/reaction diluted in assay buffer was added to a total volume of 12.5 μL). Compound and protein were incubated for 30 minutes at room temperature on a plate shaker. Ten μL of a substrate mix containing 100 μM ATP (0.25 μL), γ-P^32-ATP (0.1 μL; 10 μCi/μL), pG4T (0.25 μL; 10 mg/mL) and 1× assay buffer (9.4 μL) was added to all the wells. Samples were incubated at 30° C. for 10 minutes after mixing. The reaction was stopped by the addition of 8N HCl (13 μL) containing 100 mM ATP. Thirty μL of sample was transferred to the center of a 2×2 cm^2 Whatman® P81 chromatography paper. After allowing the sample to dry for one minute, the assay squares were washed 3 times for 5 minutes each in ortho-phosphoric acid (0.5%) and once in acetone. Assay squares were dried for 15 minutes in a 30° C. oven and transferred to 96 well optiplate. Microscint-O® reagent (100 μL, Perkin Elmer) was added to each well, the plate was sealed with Topseal®-A microplates and incubated for 10 minutes at room temperature at very low speed on rocker and the plate was read in the Topcount® NXL instrument. The following calculations were made: Fold induction=radioactivity counts (uncorrected values) in positive control/substrate control.

Where a name gives a salt, the structure may show the parent alone.

The IC50 is the concentration that inhibits the measured activity by half.

Turning to `O=C(c1ccc(Nc2nc(-c3ccccc3)nc3cn[nH]c(=O)c23)cc1)N1CCOCC1` [Example 9, 4-(4-(morpholine-4-carbonyl)phenylamino)-2-phenylpyrimido[4,5-d]pyridazin-5(6H)-one], the IC50 was above 100 nM.

Turning to `NCC(=O)N1CCN(c2ccc(Nc3nc(-c4ccccc4)nc4cn[nH]c(=O)c34)cc2)CC1` [Example 14, 4-(4-(4-(2-aminoacetyl)piperazin-1-yl)phenylamino)-2-phenylpyrimido[4,5-d]pyridazin-5(6H)-one], the IC50 is below 10 nM.

With `CN(C)CCN(C)C(=O)c1ccc(Nc2nc(-c3ccccc3)nc3cn[nH]c(=O)c23)cc1` [Example 15, N-(2-(dimethylamino)ethyl)-N-methyl-4-(5-oxo-2-phenyl-5,6-dihydropyrimido[4,5-d]pyridazin-4-ylamino)benzamide], the IC50 is above 100 nM.

For the molecule `O=C1CC2(CCN(c3ccc(Nc4nc(-c5ccccc5)nc5cn[nH]c(=O)c45)cc3)CC2)N1` [Example 16, 4-(4-(2-oxo-1,7-diazaspiro[3.5]nonan-7-yl)phenylamino)-2-phenylpyrimido[4,5-d]pyridazin-5(6H)-one], the IC50 is above 100 nM.

As for `O=c1[nH]ncc2nc(-c3ccccc3)nc(Nc3ccc(N4CCC5(CC4)COC5)cc3)c12` [Example 17, 4-(4-(2-oxa-7-azaspiro[3.5]nonan-7-yl)phenylamino)-2-phenylpyrimido[4,5-d]pyridazin-5(6H)-one], the IC50 is above 100 nM.

With `CCOC(=O)C1CC12CCN(c1ccc(Nc3nc(-c4ccccc4)nc4cn[nH]c(=O)c34)cc1)CC2` (centres unmarked) [Example 20, ethyl 6-(4-(5-oxo-2-phenyl-5,6-dihydropyrimido[4,5-d]pyridazin-4-ylamino)phenyl)-6-azaspiro[2.5]octane-1-carboxylate], the IC50 is above 100 nM.

For the molecule `O=C(O)C1CC12CCN(Cc1ccc(Nc3nc(-c4ccccc4)nc4cn[nH]c(=O)c34)cc1)CC2` (centres unmarked) [Example 21, 6-(4-(5-oxo-2-phenyl-5,6-dihydropyrimido[4,5-d]pyridazin-4-ylamino)benzyl)-6-azaspiro[2.5]octane-1-carboxylic acid], the IC50 is above 100 nM.

As for `COC(=O)c1ccc(-c2nc(Nc3ccc(N4CCOCC4)cc3)c3c(=O)[nH]ncc3n2)cc1` [Example 29, methyl 4-(4-(4-morpholinophenylamino)-5-oxo-5,6-dihydropyrimido[4,5-d]pyridazin-2-yl)benzoate], the IC50 is above 100 nM.

As for `O=C(O)C1CC12CCN(c1ccc(Nc3nc(N4CCOCC4)nc4cn[nH]c(=O)c34)cc1)CC2` (centres unmarked) [Example 42, 6-(4-((2-morpholino-5-oxo-5,6-dihydropyrimido[4,5-d]pyridazin-4-yl)amino)phenyl)-6-azaspiro[2.5]octane-1-carboxylic acid], the IC50 was below 100 nM.

With `O=c1[nH]ncc2nc(-c3ccccc3)nc(Nc3cnn(CCN4CCOCC4)c3)c12` [Example 58, 4-((1-(2-morpholinoethyl)-1H-pyrazol-4-yl)amino)-2-phenylpyrimido[4,5-d]pyridazin-5(6H)-one], the IC50 is above 100 nM.

For the molecule `COc1nc(Nc2ccc(CN3CCNCC3)cc2)c2c(=O)[nH]ncc2n1` [Example 61, 2-methoxy-4-((4-(piperazin-1-ylmethyl)phenyl)amino)pyrimido[4,5-d]pyridazin-5(6H)-one hydrochloride], the IC50 was above 100 nM.

Consider `O=c1[nH]ncc2nc(-c3ccccc3)nc(Nc3cnn(CCN4CCNCC4)c3)c12` [Example 63, 2-phenyl-4-((1-(2-(piperazin-1-yl)ethyl)-1H-pyrazol-4-yl)amino)pyrimido[4,5-d]pyridazin-5(6H)-one hydrochloride], for which the half-inhibitory concentration (IC50) is above 100 nM.

For `CN1CCN(CCn2cc(Nc3nc(-c4ccccc4)nc4cn[nH]c(=O)c34)cn2)CC1` [Example 64, 4-((1-(2-(4-methylpiperazin-1-yl)ethyl)-1H-pyrazol-4-yl)amino)-2-phenylpyrimido[4,5-d]pyridazin-5(6H)-one], the IC50 is above 100 nM.

Consider `CCN1CCN(CCn2cc(Nc3nc(-c4ccccc4)nc4cn[nH]c(=O)c34)cn2)CC1` [Example 65, 4-((1-(2-(4-ethylpiperazin-1-yl)ethyl)-1H-pyrazol-4-yl)amino)-2-phenylpyrimido[4,5-d]pyridazin-5(6H)-one], for which the IC50 was above 100 nM.

With `COc1cc(Nc2nc(N3CCCCCC3)nc3cn[nH]c(=O)c23)cc(OC)c1OC` [Example 67, 2-(azepan-1-yl)-4-((3,4,5-trimethoxyphenyl)amino)pyrimido[4,5-d]pyridazin-5(6H)-one], the IC50 was above 100 nM.

Take `N#CCN1CCN(c2nc(Nc3ccc(N4CCC5(CC4)CC5C(=O)O)cc3)c3c(=O)[nH]ncc3n2)CC1` (centres unmarked) [Example 73, 6-(4-((2-(4-(cyanomethyl)piperazin-1-yl)-5-oxo-5,6-dihydropyrimido[4,5-d]pyridazin-4-yl)amino)phenyl)-6-azaspiro[2.5]octane-1-carboxylic acid]: the half-inhibitory concentration (IC50) is below 100 nM.

With `N#CC1CCN(c2nc(Nc3ccc(N4CCC5(CC4)CC5C(=O)O)cc3)c3c(=O)[nH]ncc3n2)CC1` (centres unmarked) [Example 74, 6-(4-((2-(4-cyanopiperidin-1-yl)-5-oxo-5,6-dihydropyrimido[4,5-d]pyridazin-4-yl)amino)phenyl)-6-azaspiro[2.5]octane-1-carboxylic acid], the IC50 was above 100 nM.

With `N#CC1CCN(c2nc(Nc3ccc(N4CCC(CC(=O)O)CC4)cc3)c3c(=O)[nH]ncc3n2)CC1` [Example 75, 2-(1-(4-((2-(4-cyanopiperidin-1-yl)-5-oxo-5,6-dihydropyrimido[4,5-d]pyridazin-4-yl)amino)phenyl)piperidin-4-yl)acetic acid], the IC50 was below 100 nM.

Turning to `N#CC1CCN(c2nc(Nc3ccc(CN4CCC(C(=O)O)CC4)cc3)c3c(=O)[nH]ncc3n2)CC1` [Example 76, 1-(4-((2-(4-cyanopiperidin-1-yl)-5-oxo-5,6-dihydropyrimido[4,5-d]pyrimido[4,5-d]pyridazin-4-yl)amino)benzyl)piperidine-4-carboxylic acid], the IC50 was above 100 nM.

Consider `N#CCC1CCN(c2nc(Nc3ccc(CN4CCC(C(=O)O)CC4)cc3)c3c(=O)[nH]ncc3n2)CC1` [Example 78, 1-(4-((2-(4-(cyanomethyl)piperidin-1-yl)-5-oxo-5,6-dihydropyrimido[4,5-d]pyridazin-4-yl)amino)benzyl)piperidine-4-carboxylic acid], for which the IC50 was below 100 nM.

With `N#CCC1CCN(c2ccc(Nc3nc(-c4ccccc4)nc4cn[nH]c(=O)c34)cc2)CC1` [Example 82, 2-(1-(4-((5-oxo-2-phenyl-5,6-dihydropyrimido[4,5-d]pyridazin-4-yl)amino)phenyl)piperidin-4-yl)acetonitrile], the IC50 is above 100 nM.

As for `O=C(O)CC1CCN(c2ccc(Nc3nc(C4CCCCCC4)nc4cn[nH]c(=O)c34)cc2)CC1` [Example 90, 2-(1-(4-((2-cycloheptyl-5-oxo-5,6-dihydropyrimido[4,5-d]pyridazin-4-yl)amino)phenyl)piperidin-4-yl)acetic acid], the IC50 was below 100 nM.

Take `O=c1[nH]ncc2nc(-c3ccccc3)nc(Nc3ccc(OCCN4CCOCC4)cc3)c12` [Example 94, 4-((4-(2-morpholinoethoxy)phenyl)amino)-2-phenylpyrimido[4,5-d]pyridazin-5(6H)-one]: the IC50 was below 100 nM.
